Patent US20260174910A1, “POROUS EXPANDING BIOCOMPATIBLE SCAFFOLDS” (DANMARKS TEKNISKE UNIVERSITET, priority 2022, published 2026)

Columns and labels:
[1] = Lipids/surfactants in ECell: solubility and expansion in PBS (images); assay type: physicochemical; conditions: for appearance of ECell compositions containing the lipid/surfactant: 1% w/w (RGD lipids 0.1%), with and without 2.5% CAB polymer; for ECell expansion compared to the reference: LOIB:CAB:DMSO:Surfactant 66.5:2.5:30:1, PBS, reference LOIB:CAB:DMSO 67.5:2.5:30; for ECell expansion compared to the reference / shape of the depot compared to reference: 37° C.; for shape of the depot compared to reference: ECells without CAB, LOIB:GTH:DMSO:Surfactant 69:10:20:1, PBS
Method: Different surfactants were formulated in expandable (w CAB, Mn 12000) vs non-expandable (w GTH) ECell formulations in a concentration of 1% w/w. […] Gel formulations containing each surfactant were prepared in 600 mg aliquots.
Duplicates consisting of 100 μL gel depots of each ECell formulation were injected into 2 mL PBS buffer. Samples were incubated at 37° C., and images of a non-expandable vs an expandable ECell containing the same surfactant side-by-side were taken at 1.5 h and 2 days and 7 days post injection to investigate and document surfactant effects on ECell expansion.

[2] = cited from earlier work
[3] = Solvent type and ECell expansion in PBS (visual inspection of images); assay type: physicochemical; conditions: LOIB:CAB (Mn 12000):Solvent 67.5:2.5:30, 100 μL in 2 mL PBS, 37° C., 1.5 h, 2 days, 7 days pi
Method: These ECells were prepared to study eventual surface and expansion effects of the specific solvent type on LOIB:CAB compositions. ECell formulations were prepared in 900 mg aliquots. 12 h stability at room temperature (RT) was investigated and documented in images. Only soluble formulations of appropriate viscosity were injected as gel depots into PBS (100 μL, for visual inspection). Duplicates consisting of 100 μL ECell depots of each clear formulation were injected into 2 mL PBS buffer for inspection. Samples were kept at 37° C., and images of each injected gel depot composition were recorded at 1.5 h and 2 days and 7 days post injection (pi) to investigate and document effects of solvent type on the depots.

[4] = In vitro release of antimicrobials from expanding ECells (RHPLC); assay type: physicochemical; conditions: dPBS, 37° C., FIG. 18
Method: Each formulation was loaded with antimicrobial in varying concentrations (see Table 1) and was injected as ≈100 μl into 4 ml Dulbecco's Phosphate-buffered Saline (dPBS), in a glass vial, and incubated at 37° C. in atmospheric air, only taken out when samples were collected and new dPBS was added. Sample collection proceeded by removing all dPBS possible with a pipette, weighing the expanding ECells, then saving 1 ml for analysis, returning the rest, and adding new dPBS until 4,000 mg of water was present.
At each chosen time point, 1 ml of the release medium was collected and RHPLC analysis was carried out. […] Solution A was an aqueous mixture of 5% v/v MeCN and 0.01% TFA. […] Rifamycin splits into several peaks over time, and the total AUC of all peaks were used for quantification and standard curve generation.

[5] = In vitro release of MMP / gp-130 inhibitors from expanding ECells (RHPLC); assay type: physicochemical; conditions: 5 mg/g in LOIB:CAB(12 kDa):DMSO (65:5:30), dPBS, 37° C.
Method: The in vitro release profile of three inhibitor compounds were elucidated from a LOIB:CAB(12 kDa):DMSO (65:5:30) formulation. […] Loading of inhibitors were done by adding the desired concentration in mg per g of expanding ECells and stirring on a magnetic stirrer at room temperature until the solution became clear.
Each compound was loaded as 5 mg/g in the expanding ECell formulation and injected in 4 ml Dulbecco's Phosphate-buffered Saline (dPBS) as ≈100 μl, in triplicates, and incubated at 37° C. At chosen time points (see FIG. 19a), all dPBS was removed by pipetting, the expanding ECells+potentially absorbed water was weighed, and its weight noted down, 1 ml dPBS was collected for release quantification, and the remaining dPBS+fresh dPBS to a total of 4 ml (4 g) was added.
Weight data was used to generate a graph of the relative expanding ratio as a function of time (FIG. 19b), and from the 1 ml collected, RHPLC analysis was carried out. […] Solution A was an aqueous mixture of 5% v/v MeCN and 0.01% TFA.

[6] = Method: After addition of LOIB and DMSO, each ECell formulation was sonicated at 75° C. for 2 hrs and vortexed every 30th minute.

| Molecule | appearance of ECell compositions containing the lipid/surfactant [1] | ECell expansion compared to the reference [1] | expansion of the ECell by solvent, as judged by the eye [3] | further results |
| --- | --- | --- | --- | --- |
| CNC(=O)[C@H](Cc1ccccc1)NC(=O)[C@H](CC(C)C)[C@H](CSc1cccs1)C(=O)NO [Batimastat] | – | – | – | log P [2]: 3.27 |
| OCc1ccccc1 [BnOH, Benzyl alcohol] | – | – | did not expand | – |
| CCCCOC(C)=O [BuAc, Butyl acetate] | – | – | did not expand | – |
| CC(C)CCC[C@@H](C)[C@H]1CC[C@H]2[C@@H]3CC=C4C[C@@H](OC(=O)CCC(=O)O)CC[C@]4(C)[C@H]3CC[C@]12C [CHEMS, cholesteryl hemisuccinate] | Homogeneous | relatively similar to the reference | – | shape of the depot compared to reference [1]: slight flattening of the depot compared to reference |
| CN(C)C=O [DMF, Dimethyl formamide] | – | – | cause expansion of the ECell | – |
| CCO [EtOH, Ethanol] | – | – | did not expand | – |
| CCCCCCCCCCCC(=O)OCC(O)CO (stereo not shown) [Monolaurin] | Homogeneous | relatively similar to the reference | – | – |
| CO[C@H]1/C=C/O[C@@]2(C)Oc3c(C)c(O)c4c(O)c(cc(O)c4c3C2=O)NC(=O)/C(C)=C\C=C\[C@H](C)[C@H](O)[C@@H](C)[C@@H](O)[C@@H](C)[C@H](OC(C)=O)[C@@H]1C [Rifamycin SV] | – | – | – | log P [2]: 4.17; in vitro release rate (comparison in words) [4]: relatively slower release rate |
| O=S(=O)(CC1CS1)c1ccc(Oc2ccccc2)cc1 (stereo not shown) [SB-3CT] | – | – | – | cargo released in vitro after 42 days [5]: about 5%; log P [2]: 2.75 |
| Cellulose Acetate [Cellulose Acetate (Mn=30,000)] | – | – | – | solubility in LOIB:DMSO ECell [6]: insoluble |
| LMT-28 | – | – | – | cargo released in vitro after 42 days [5]: 10%; log P [2]: 3.71 |

The next lines start with results.

| appearance of ECell compositions containing the lipid/surfactant [1] | ECell expansion compared to the reference [1] | expansion of the ECell by solvent, as judged by the eye [3] | Molecule | further results |
| --- | --- | --- | --- | --- |
| Homogeneous | slightly reduced | – | 1,2-Dimyristoyl-rac-glycero-3-methoxypolyethylene glycol-2000 [DMG-PEG2K] | – |
| – | – | cause expansion of the ECell | C[S+](C)[O-] [DMSO, Dimethyl sulphoxide] | – |
| Homogeneous | relatively similar to the reference | – | CCCCCCCCCCCC(=O)O [Lauric acid] | – |
| – | – | cause expansion of the ECell | CN1CCCC1=O [NMP, N-methyl pyrrolidone] | – |
| – | slightly reduced | – | CCCCCCCC/C=C\CCCCCCCC(=O)O [Oleic acid] | – |
| – | – | did not expand | CC1COC(=O)O1 (stereo not shown) [PC, Propylene carbonate] | – |
| Homogeneous | slightly reduced | – | PEG(10)-monolaurate | – |
| Homogeneous | – | – | PEG(20)-monooleyl ether | – |
| Homogeneous | slightly reduced | – | Tween 80 | shape of the depot compared to reference [1]: slight flattening of the depot compared to reference |
